According to PubChem BioAssay AID1417 (Emory University Molecular Libraries Screening Center, 2008):
pIC50: −log10 of the molar value.

Each compound was assayed against Induced myeloid leukemia cell differentiation protein Mcl-1 (Homo sapiens) (UniProt Q07820) (assay: Mcl-1/Noxa binding inhibitor potency, dose response, biochemical, TR-FRET (AID 1417)). Settings: Mcl-1/Noxa peptide interaction, cell-free TR-FRET (terbium/rhodamine), 2 h; measured here: absolute IC50.
Induced myeloid leukemia cell differentiation protein Mcl-1 (Homo sapiens), sequence (Q07820 whole entry, looked up): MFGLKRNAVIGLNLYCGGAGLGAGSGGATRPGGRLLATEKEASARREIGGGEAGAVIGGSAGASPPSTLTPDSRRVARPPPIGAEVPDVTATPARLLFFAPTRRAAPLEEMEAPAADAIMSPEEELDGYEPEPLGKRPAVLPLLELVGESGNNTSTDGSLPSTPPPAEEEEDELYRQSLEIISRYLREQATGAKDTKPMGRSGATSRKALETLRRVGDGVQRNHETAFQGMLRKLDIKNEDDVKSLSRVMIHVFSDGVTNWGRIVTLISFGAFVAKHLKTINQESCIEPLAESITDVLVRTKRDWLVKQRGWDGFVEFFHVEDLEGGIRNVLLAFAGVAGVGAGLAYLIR
Compound `O=C(O)C[C@@H]1C(=O)O[C@@H]2C(COC(=O)c3cc(O)c(O)c(O)c3)O[C@@H](OC(=O)c3cc(O)c(O)c(O)c3)[C@@H](OC(=O)c3cc(O)c(O)c4c3[C@H]1[C@H](O)C(=O)O4)[C@H]2OC(=O)c1cc(O)c(O)c(O)c1` (stereo partly drawn) has a pIC50 of over 6.40.
`O=C1CSC(=S)N1/N=C/c1ccc(O)c(O)c1O` was tested, and the pIC50 was over 6.40.
`Cc1sc(-n2c(C)cc(/C=C3\SC(=S)NC3=O)c2C)c(C#N)c1C` showed a pIC50 of 5.39.
Work on `Cc1nc(NC(=O)c2ccccc2)sc1-c1csc(Nc2ccc(C(=O)O)cc2)n1` yielded a pIC50 of 5.44.
`CN1CCN(c2ccc([N+](=O)[O-])cc2/C=N/NC(=O)c2cccc([N+](=O)[O-])c2)CC1` was tested, and the pIC50 was 5.85.
`Oc1nc(Nc2ccc(F)cc2)sc1/C=C1\C=Nc2ccccc21` was tested, and the pIC50 was 5.36.
`Cc1ccc(NC(=O)CSc2nnc(-c3ccco3)c(-c3ccco3)n2)cc1` gave a pIC50 of 5.48.
In the case of `Cc1cc(C(=O)OCC(=O)Nc2sc3c(c2C#N)CCC(C)C3)c2ccccc2n1` (stereo not drawn), the pIC50 was 5.37.
`CC(=O)c1cc(C#N)c(SCc2ccccn2)nc1C` was tested, and the pIC50 was under 4.27.
Compound `CN(C)c1ncc(C2=C(Cl)C(=O)C(N3CCCC3)=C(Cl)C2=O)s1` has a pIC50 of over 6.40.
In the case of `Cc1ccccc1C(=O)Nc1nc(-c2cccnc2)cs1`, the pIC50 was over 6.40.
In the case of `COc1ccc(-c2cnnc(N/N=C/c3ccc(O)cc3)n2)cc1`, the pIC50 was 5.08.
For `O=C(O)c1cc(N/N=C/c2ccc(N3CCOCC3)s2)ccc1Cl`, the pIC50 was 5.97.
For `CC1=C(C#N)c2nc(N)c(C#N)c(C)c2/C1=C\c1ccc(-c2ccccc2C(=O)O)o1`, the pIC50 was 5.53.
`Cc1ccc(/C=C2/SC(=O)NC2=S)o1` was tested, and the pIC50 was 5.39.
With `COc1ccc(N=C2S/C(=C\c3ccc(OC(C)C(=O)O)c(OC)c3)C(=O)N2CCc2c[nH]c3ccccc23)cc1` (stereo not drawn) the pIC50 was 5.14.
Compound `O=C(O)CCc1nc(-c2cccs2)no1` has a pIC50 of under 4.27.
`O=[N+]([O-])c1ccc(/C=N/NC(=S)Nc2ccc(Cl)cc2Cl)s1` showed a pIC50 of 5.87.
`O=C1NC(=O)/C(=C\c2ccc(O)cc2O)S1` showed a pIC50 of over 6.40.
Work on `Cc1cc(C(F)F)n2nc(C(=O)Nc3sc4c(c3C(N)=O)CCC4)nc2n1` yielded a pIC50 of 4.94.
`N/C(=N\N=C/c1ccc(-c2ccc(O)c(C(=O)O)c2)o1)N[N+](=O)[O-]` was tested, and the pIC50 was 5.58.
With `Nc1scc2c(C(=O)N/N=C/c3ccc(Cl)cc3)nn(-c3ccccc3)c(=O)c12` the pIC50 was 5.88.
Compound `CCN(CC)c1ccc(NC2=C(Cl)C(=O)c3ccccc3C2=O)cc1` has a pIC50 of over 6.40.
`CCC1=NN2C(=N)/C(=C\c3ccc(OCc4cc(=O)n5nc(CC)sc5n4)c(OC)c3)C(=O)N=C2S1` showed a pIC50 of 5.64.
`Cc1cccc(NC(=O)CN2C(=O)N/C(=C/c3ccc(C)o3)C2=O)c1` showed a pIC50 of under 4.27.
Compound `O=C1C(=Cc2cccn2-c2ccccc2)C(=O)c2ccccc21` has a pIC50 of 5.29.
For `CCOC(=O)c1c(OCC)[nH]c2c1cc(O)c1ccccc12`, the pIC50 was over 6.40.
For `COc1cc(/C=C2\SC(=O)NC2=O)ccc1Oc1ccc([N+](=O)[O-])cc1[N+](=O)[O-]`, the pIC50 was 5.48.
`CN(C)c1ccc(C(CNC(=O)c2ccccc2Br)c2c[nH]c3ccccc23)cc1` (stereo not drawn) showed a pIC50 of under 4.27.
`CC1=Nc2cccc3cccc(c23)N1` gave a pIC50 of 5.58.
`COc1ccc2nc(NC(=O)Nc3cccc4ccccc34)sc2c1` showed a pIC50 of under 4.27.
Compound `C/C(=N\NC(=O)c1cccc(N/N=C(\C)c2cc(O)ccc2O)c1)c1cc(O)ccc1O` has a pIC50 of over 6.40.
In the case of `COc1cc(C2Nc3cccc4cccc(c34)N2)cc(OC)c1OC(C)=O`, the pIC50 was 5.61.
With `COc1cc(NS(=O)(=O)c2ccc(NC(=S)NC(=O)c3sc4cc(F)ccc4c3Cl)cc2)nc(OC)n1` the pIC50 was under 4.27.
`Cc1cccc(N=C2NC(=O)/C(=C/C=C/c3ccco3)S2)c1C` showed a pIC50 of 5.38.
In the case of `COc1cc(C2C3=C(Nc4nc(N)[nH]c(=O)c42)c2ccccc2C3=O)ccc1O` (stereo not drawn), the pIC50 was 5.64.
Work on `CCCCN1C(=O)/C(=C/C=C/c2ccco2)C(=O)NC1=S` yielded a pIC50 of 6.26.
`N=C1/C(=C\c2ccc(-c3cccc(C(=O)O)c3)o2)C(=O)N=C2SC=C(c3ccccc3)N12` was tested, and the pIC50 was 5.89.
With `O=c1oc2c(O)c(O)cc3c(=O)oc4c(O)c(O)cc1c4c23` the pIC50 was over 6.40.
`Oc1[nH]c(=S)sc1/C=C1\C(c2ccccc2)=Nc2ccccc21` was tested, and the pIC50 was 5.06.
In the case of `COc1ccc(-n2c(N)c(-c3nc4ccccc4n3C)sc2=S)cc1`, the pIC50 was under 4.27.
`N=C1S/C(=C\c2ccco2)C(=O)N1c1ccc2c(c1)OCO2` was tested, and the pIC50 was 5.05.
Compound `Nc1nc2c(c(=O)[nH]1)C(c1cccc3ccccc13)C1=C(N2)c2ccccc2C1=O` (stereo not drawn) has a pIC50 of 5.38.
For `COc1cc(NCCC(=O)c2cccs2)c(OC)cc1Cl`, the pIC50 was under 4.27.
For `COc1cc(C2C(C#N)=C(N)OC3=C2C(=O)CCC3)c([N+](=O)[O-])cc1OC` (stereo not drawn), the pIC50 was 5.29.
With `COc1cc(SC)ccc1C(=O)N1CCN(c2ccccc2)CC1` the pIC50 was under 4.27.
Work on `O=C1/C(=C/c2ccc(O)c(O)c2)Oc2cc(O)ccc21` yielded a pIC50 of 5.94.
Work on `Nc1cccnc1Sc1cc(Cl)c(Cl)cc1Cl` yielded a pIC50 of under 4.27.
`Oc1ccc(/C=N/Nc2ccnc3cc(Cl)ccc23)cc1O` gave a pIC50 of 5.70.
In the case of `CCOc1ccccc1Nc1nc(-c2sc(NC(=O)c3ccc([N+](=O)[O-])cc3)nc2C)cs1`, the pIC50 was over 6.40.
For `O=C1CCCC2=C1C(c1ccc(O)c(O)c1)Nc1ccc3ncccc3c12` (stereo not drawn), the pIC50 was over 6.40.
With `CN1CCN(CCCN2c3ccccc3Sc3ccc(Cl)cc32)CC1` the pIC50 was 5.39.
`N#CC(C#N)=NNc1ccc(S(N)(=O)=O)cc1` was tested, and the pIC50 was 5.72.
